Results taken from paper PMC9851200, “Multiparameter phenotypic screening for endogenous TFEB and TFE3 translocation identifies novel chemical series modulating lysosome function” (Autophagy, 2022).
Read-outs that look alike come from different tables or passages of the source.

Tests used:
Format in all cases: binding
CDC42BPB/MRCKB = CDC42BPB/MRCKB (Homo sapiens, UniProt Q9Y5S2)
CSNK1E = CSNK1E (Homo sapiens, UniProt P49674); experiment: KINOMEscan CSNK1E; details: NEW KINOMEscan
MTOR = MTOR (Homo sapiens, UniProt P42345); experiment: KINOMEscan MTOR; details: NEW KINOMEscan
ACVR1B = target: T1, ACVR1B (Homo sapiens, UniProt P36896); experiment: KINOMEscan ACVR1B
T1 sequence (P36896 24-505): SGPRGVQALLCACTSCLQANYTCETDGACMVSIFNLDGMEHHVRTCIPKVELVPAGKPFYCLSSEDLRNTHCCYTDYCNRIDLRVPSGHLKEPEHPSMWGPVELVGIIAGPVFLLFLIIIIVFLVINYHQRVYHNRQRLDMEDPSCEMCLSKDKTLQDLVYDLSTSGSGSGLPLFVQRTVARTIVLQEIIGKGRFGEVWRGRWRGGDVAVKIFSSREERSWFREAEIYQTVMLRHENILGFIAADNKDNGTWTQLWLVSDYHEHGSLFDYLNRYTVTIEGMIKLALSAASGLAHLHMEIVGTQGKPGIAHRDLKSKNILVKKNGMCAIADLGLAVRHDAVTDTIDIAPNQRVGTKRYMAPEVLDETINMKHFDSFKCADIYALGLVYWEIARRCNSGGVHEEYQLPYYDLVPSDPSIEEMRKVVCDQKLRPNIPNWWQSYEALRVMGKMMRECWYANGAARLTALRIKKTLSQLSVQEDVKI

TGFBR1 = target: T2, TGFBR1 (Homo sapiens, UniProt P36897); experiment: KINOMEscan TGFBR1
T2 sequence (P36897 34-503): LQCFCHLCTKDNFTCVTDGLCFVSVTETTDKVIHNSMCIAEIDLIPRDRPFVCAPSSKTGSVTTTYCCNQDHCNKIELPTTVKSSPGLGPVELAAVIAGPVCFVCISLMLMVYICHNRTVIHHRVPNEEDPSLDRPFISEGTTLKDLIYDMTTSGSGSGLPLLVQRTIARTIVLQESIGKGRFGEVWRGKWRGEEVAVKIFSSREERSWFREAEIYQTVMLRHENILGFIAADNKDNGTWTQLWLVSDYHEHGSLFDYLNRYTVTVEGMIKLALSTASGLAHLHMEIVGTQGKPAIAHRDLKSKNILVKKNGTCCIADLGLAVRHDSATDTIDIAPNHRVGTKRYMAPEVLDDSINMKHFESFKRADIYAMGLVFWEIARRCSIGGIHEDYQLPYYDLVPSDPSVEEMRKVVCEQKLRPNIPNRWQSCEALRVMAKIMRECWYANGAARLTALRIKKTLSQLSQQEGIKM

JAK1(JH2) = target: T3, JAK1(JH2) (Homo sapiens, UniProt P23458); experiment: KINOMEscan JAK1(JH2); details: NEW KINOMEscan
T3 construct: JAK1(JH2)

CIT = CIT (Homo sapiens, UniProt O14578); experiment: KINOMEscan CIT; details: NEW KINOMEscan
[1] = target: kinases (KINOMEscan panel) (Homo sapiens, UniProt P42336, Q546K); details: kinase PIK3CA(Q546K); NEW KINOMEscan
[2] = target: kinases (KINOMEscan panel) (Homo sapiens, UniProt P53350); details: PLK1; NEW KINOMEscan
[3] = target: T4, kinases (KINOMEscan panel) (Homo sapiens, UniProt Q04771); details: ACVR1; NEW KINOMEscan
T4 sequence (Q04771 21-509): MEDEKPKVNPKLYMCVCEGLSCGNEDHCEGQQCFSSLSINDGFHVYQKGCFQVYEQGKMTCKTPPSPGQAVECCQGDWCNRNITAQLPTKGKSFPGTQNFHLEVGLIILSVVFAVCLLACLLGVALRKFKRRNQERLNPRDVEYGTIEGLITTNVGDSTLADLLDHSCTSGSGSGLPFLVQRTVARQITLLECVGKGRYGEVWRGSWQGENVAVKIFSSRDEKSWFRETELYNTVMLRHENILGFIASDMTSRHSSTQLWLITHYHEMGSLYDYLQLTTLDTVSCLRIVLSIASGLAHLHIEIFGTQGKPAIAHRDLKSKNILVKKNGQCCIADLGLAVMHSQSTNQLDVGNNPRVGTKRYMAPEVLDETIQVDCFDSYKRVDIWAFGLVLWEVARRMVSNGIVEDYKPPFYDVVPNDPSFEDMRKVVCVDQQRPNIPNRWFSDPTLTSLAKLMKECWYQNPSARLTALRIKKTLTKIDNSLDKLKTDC

[4] = target: kinases (KINOMEscan panel) (Homo sapiens, UniProt P49759); details: kinase CLK1; NEW KINOMEscan

CSNK1E, sequence (P49674 whole entry): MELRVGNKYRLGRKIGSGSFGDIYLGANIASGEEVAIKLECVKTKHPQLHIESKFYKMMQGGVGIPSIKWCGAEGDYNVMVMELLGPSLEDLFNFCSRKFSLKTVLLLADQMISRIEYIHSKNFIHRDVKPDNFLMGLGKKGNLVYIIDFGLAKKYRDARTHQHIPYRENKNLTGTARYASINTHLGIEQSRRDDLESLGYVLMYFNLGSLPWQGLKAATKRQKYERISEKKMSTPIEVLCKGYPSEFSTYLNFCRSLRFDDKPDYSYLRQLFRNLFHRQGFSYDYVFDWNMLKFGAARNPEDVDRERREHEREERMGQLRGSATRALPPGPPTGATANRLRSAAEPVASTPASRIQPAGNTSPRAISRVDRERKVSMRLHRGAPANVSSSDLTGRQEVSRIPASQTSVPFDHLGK
kinases (KINOMEscan panel) (Homo sapiens, UniProt P53350), sequence (P53350 whole entry): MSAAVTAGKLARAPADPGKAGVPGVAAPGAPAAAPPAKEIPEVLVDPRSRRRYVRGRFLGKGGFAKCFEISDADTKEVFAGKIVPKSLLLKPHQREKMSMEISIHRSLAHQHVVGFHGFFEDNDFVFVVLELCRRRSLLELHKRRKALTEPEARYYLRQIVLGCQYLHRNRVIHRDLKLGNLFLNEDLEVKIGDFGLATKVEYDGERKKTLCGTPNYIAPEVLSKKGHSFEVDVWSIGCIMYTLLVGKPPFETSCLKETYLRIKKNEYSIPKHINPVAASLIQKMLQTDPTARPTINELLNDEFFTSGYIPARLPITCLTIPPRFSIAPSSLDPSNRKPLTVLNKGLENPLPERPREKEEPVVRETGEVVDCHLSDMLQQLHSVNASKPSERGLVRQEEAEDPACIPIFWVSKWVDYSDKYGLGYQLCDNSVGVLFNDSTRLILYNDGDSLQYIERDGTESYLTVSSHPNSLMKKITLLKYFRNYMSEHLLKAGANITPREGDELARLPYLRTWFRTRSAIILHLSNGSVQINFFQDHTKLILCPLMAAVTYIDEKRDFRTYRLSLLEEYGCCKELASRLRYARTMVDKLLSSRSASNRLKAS
T3 sequence (P23458 583-855 limits assumed): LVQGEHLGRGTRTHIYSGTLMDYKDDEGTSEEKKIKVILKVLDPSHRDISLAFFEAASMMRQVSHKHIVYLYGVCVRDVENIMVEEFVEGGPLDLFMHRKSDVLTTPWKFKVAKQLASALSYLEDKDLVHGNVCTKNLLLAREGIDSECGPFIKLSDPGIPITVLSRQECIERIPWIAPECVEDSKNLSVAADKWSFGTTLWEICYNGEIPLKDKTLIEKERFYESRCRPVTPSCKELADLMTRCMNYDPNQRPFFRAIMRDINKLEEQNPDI
CIT, sequence (O14578 whole entry): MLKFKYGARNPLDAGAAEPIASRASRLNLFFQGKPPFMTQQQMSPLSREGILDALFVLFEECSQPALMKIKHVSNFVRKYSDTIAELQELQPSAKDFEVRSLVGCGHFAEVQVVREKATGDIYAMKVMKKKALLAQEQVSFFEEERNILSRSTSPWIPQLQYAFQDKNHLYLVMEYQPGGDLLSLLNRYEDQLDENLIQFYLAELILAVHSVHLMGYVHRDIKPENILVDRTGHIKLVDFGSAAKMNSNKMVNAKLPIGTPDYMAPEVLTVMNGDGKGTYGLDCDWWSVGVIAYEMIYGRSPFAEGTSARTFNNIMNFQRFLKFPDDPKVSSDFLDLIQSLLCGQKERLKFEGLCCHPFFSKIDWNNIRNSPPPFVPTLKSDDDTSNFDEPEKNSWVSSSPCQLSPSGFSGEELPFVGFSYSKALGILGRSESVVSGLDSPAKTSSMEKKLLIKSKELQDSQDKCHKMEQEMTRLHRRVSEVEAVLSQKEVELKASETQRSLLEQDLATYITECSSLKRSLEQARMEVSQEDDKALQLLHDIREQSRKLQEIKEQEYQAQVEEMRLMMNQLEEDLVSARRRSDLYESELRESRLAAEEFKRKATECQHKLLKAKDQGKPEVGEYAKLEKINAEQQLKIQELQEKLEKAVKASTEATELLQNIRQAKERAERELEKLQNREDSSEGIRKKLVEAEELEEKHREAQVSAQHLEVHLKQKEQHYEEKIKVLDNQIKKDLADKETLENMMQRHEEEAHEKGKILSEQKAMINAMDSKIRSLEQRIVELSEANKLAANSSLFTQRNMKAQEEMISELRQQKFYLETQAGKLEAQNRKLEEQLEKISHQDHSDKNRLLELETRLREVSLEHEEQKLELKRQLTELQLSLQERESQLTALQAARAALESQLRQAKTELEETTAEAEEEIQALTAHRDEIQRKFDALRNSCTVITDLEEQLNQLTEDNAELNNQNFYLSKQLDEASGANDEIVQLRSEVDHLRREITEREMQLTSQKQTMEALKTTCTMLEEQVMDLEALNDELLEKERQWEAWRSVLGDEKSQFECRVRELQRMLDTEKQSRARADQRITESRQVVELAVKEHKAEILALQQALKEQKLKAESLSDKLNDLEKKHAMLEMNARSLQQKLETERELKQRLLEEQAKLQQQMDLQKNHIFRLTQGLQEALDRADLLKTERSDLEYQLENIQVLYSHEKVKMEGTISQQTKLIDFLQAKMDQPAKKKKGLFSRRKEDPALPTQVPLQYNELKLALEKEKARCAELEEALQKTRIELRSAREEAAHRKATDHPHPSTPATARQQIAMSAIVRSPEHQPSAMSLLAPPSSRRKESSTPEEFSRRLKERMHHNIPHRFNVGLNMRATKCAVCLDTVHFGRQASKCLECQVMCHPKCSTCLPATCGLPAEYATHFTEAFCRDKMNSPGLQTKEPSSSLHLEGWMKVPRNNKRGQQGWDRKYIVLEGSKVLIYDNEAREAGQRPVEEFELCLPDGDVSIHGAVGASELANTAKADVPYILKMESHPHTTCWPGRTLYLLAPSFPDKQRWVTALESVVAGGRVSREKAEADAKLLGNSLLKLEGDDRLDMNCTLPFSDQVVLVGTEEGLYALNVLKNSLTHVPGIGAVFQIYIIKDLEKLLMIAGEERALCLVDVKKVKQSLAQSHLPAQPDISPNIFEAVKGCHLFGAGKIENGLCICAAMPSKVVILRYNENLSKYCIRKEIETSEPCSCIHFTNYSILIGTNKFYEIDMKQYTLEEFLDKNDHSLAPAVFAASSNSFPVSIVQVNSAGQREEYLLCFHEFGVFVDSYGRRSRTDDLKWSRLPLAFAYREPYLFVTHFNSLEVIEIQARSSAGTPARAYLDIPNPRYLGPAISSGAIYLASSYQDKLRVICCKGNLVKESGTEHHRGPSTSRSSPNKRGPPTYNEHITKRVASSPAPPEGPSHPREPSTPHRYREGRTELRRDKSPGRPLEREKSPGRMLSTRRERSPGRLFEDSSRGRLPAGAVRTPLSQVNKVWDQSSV
CDC42BPB/MRCKB, sequence (Q9Y5S2 whole entry): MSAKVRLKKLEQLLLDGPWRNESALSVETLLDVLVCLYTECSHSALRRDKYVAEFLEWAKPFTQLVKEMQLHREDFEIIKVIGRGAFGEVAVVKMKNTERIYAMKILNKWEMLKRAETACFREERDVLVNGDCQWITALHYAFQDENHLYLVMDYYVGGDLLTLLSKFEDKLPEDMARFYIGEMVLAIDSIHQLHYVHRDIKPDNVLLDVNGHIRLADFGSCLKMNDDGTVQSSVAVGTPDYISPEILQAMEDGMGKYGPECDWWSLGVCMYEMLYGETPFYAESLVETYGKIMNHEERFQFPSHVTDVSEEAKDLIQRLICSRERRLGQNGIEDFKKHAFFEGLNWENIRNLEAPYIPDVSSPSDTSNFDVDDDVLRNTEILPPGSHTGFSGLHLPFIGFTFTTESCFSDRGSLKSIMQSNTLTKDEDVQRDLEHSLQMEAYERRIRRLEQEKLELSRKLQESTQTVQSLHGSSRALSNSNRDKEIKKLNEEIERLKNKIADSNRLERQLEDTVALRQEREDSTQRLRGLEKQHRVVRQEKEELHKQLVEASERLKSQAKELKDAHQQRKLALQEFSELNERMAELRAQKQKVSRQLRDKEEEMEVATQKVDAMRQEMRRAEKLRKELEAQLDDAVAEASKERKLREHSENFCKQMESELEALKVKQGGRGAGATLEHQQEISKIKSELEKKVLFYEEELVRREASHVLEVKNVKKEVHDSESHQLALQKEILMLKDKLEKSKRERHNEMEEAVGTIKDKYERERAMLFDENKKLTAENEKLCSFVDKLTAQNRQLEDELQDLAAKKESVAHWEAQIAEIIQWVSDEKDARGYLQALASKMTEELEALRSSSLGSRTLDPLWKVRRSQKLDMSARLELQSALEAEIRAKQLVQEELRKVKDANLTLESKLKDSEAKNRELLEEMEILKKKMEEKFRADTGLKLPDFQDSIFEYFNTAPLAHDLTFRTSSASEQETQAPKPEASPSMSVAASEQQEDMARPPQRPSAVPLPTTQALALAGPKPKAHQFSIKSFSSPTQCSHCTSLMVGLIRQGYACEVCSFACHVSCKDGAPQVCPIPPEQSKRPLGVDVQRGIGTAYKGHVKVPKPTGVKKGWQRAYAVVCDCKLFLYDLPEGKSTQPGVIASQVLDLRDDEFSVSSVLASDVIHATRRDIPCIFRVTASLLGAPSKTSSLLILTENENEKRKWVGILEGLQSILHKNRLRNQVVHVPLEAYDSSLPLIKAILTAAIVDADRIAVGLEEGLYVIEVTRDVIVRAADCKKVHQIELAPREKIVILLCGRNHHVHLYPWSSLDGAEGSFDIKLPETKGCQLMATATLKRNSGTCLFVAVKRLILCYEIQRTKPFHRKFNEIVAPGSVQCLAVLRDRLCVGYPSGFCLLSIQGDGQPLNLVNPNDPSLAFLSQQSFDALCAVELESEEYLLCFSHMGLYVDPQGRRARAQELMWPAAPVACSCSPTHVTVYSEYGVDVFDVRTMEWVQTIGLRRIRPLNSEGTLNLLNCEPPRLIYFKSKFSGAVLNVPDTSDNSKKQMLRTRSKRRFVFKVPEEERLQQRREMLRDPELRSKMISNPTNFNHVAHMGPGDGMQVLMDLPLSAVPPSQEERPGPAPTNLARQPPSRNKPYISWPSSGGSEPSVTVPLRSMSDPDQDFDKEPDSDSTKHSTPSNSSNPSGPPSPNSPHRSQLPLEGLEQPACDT

SMILES | KINOMEscan CDC42BPB/MRCKB (CDC42BPB/MRCKB) | KINOMEscan CSNK1E (CSNK1E) | KINOMEscan MTOR (MTOR) | KINOMEscan ACVR1B (ACVR1B) | KINOMEscan TGFBR1 (TGFBR1) | KINOMEscan JAK1(JH2domain-pseudokinase) (JAK1(JH2)) | KINOMEscan CIT (CIT) | KINOMEscan PIK3CA(Q546K) [1] | KINOMEscan PLK1 [2] | KINOMEscan ACVR1 [3] | KINOMEscan CLK1 [4] | KINOMEscan ACVR1B (ACVR1B; ACVR1B, NEW KINOMEscan) | KINOMEscan TGFBR1 (TGFBR1; TGFBR1, NEW KINOMEscan)
Cc1cccc(-c2nc(Nc3ccc4nn(C)cc4c3)c3ccccc3n2)n1 [NK167] | 0 | 8 | 0 | 20 | 21 | 36 | 3 | 0 | 0 | 0 | 0 |  | 
Cc1cccc(-c2nc(N(C)c3ccc4ncsc4c3)c3ccccc3n2)n1 [NK-161] | 5 | 7 | 4 |  |  | 41 | 0 | 7 | 4 | 0 | 2 | 28 | 12
